Laboratory results as given in patent US12390435B2, “Electrophiles and electrophile pro-drugs as RAD51 inhibitors” (University of Pittsburgh—Of the Commonwealth System of …, priority 2018, dated 2025).

How the values were obtained:
[1] = system: NF-κB transcriptional activity; test: NF-κB luciferase reporter; assay type: cell-based; details: MDA-MB-231 and MDA-MB-468 cells, 5 μM 2 hr then TNFα 20 ng/mL 4 hr
Procedure: Luciferase-chemiluminescence-based analysis of NF-κB transcriptional activity was performed. MDA-MB-231 and MDA-MB-468 cells (˜70% confluence) in 12-well plates were transiently transfected with a NF-κB-luciferase reporter plasmid (Stratagene, La Jolla, CA) with Lipofectamine 3000. […] Each transfection was performed in triplicate. Luciferase activity was measured using the Dual-luciferase assay kit (Promega). Relative light units (RLU) were measured using a 96-well plate luminometer, according to the manufacturer's instructions (Victor II, PerkinElmer Life Sciences). Protein concentration was determined using the BCA Assay (Thermo Fisher Scientific). Data represents the ratio of treated samples to controls in the context of mean RLU/protein content, +/−SD. Three individual experiments were done, and statistical significance was determined by Kruskal-Wallis test followed by Dunn's post-test with Bonferroni corrections for multiple comparisons.

RelA = target: T1, RelA (Homo sapiens, UniProt Q04206); test: Biotinylated NO2-FA protein alkylation pull-down and proteomics; assay type: binding; details: recombinant RelA protein
T1 construct: endogenous in cells; host or cells: MDA-MB-231, MDA-MB-468
Procedure: After 2 hr cells were harvested in lysis buffer containing 1% Triton X, 10% glycerol, 150 mM NaCl, 10 mM HEPES, 1 mM EDTA, 1 mM EGTA, and supplemented with a mixture of protease and phosphatase inhibitors (Roche Applied Science). Total cell lysates (0.5-1 mg) were mixed and incubated with streptavidin agarose beads (Sigma-Aldrich) at 4° C., overnight. Beads were washed three times using lysis buffer. After SDS-PAGE, immunoblotting was performed using anti-RelA mouse monoclonal antibody (Santa Cruz Biotechnology) or anti-IKKβ rabbit polyclonal antibody (Cell Signaling). Proteomics analysis for the alkylation of RelA by NO2-OA was also conducted using recombinant RelA protein and LC-MS/MS analysis.

MDA-MB-231 cells = test: Cell cycle analysis with propidium iodide; assay type: cell-based; details: 5 μM NO2-OA versus DMSO
Procedure: Samples were analyzed at the Flow Cytometry Core at MWRI utilizing a BD LSRII (BD).

[2] = system: RelA in MDA-MB-231 and MDA-MB-468 cells; test: RelA protein level and polyubiquitination; assay type: cell-based
Procedure: Lysates were clarified by centrifugation at 14,000×g for 10 min. Protein lysates (1 mg) were incubated with anti-RelA antibody and Protein G/A conjugated agarose beads (EMD Millipore, Bedford, MA) at 4° C., overnight. Immunoprecipitation fraction were obtained by centrifugation at 14,000×g for 1 min at RT and washed with lysis buffer three times. The immunoprecipitated RelA was resolved by 8% SDSPAGE gel, and transferred to nitrocellulose membrane (Bio-Rad) for immunoblotting probed with an anti-ubiquitin antibody (Santa Cruz Biotechnology). The blot was then stripped and probed with an anti-RelA antibody to assess amounts of RelA protein pull-down.
(§1) Western blotting was performed. 20-60 μg of total lysates per lane were loaded on 7%, 10%, or 12% SDS-PAGE and transferred onto nitrocellulose or polyvinylidene difluoride membranes (Bio-Rad). The membranes were probed with primary antibodies against caspase-3, multi-drug resistance protein-1 (MRP1), poly [ADP ribose] polymerase-1 (PARP-1), ubiquitin, RelA; cyclin D1, p21, caspase-9, MRP4, IKKβ, pIKKβ, IκBα, or pIκBα (Cell Signaling); caspase-8 (R&D Systems). Samples were normalized to β-actin (Sigma-Aldrich) or GAPDH (Trevigen).

RelA in MCF-10A cells = test: RelA protein level; assay type: cell-based; details: 5 μM, 24 hr
Procedure: as §1

breast cancer cell = test: Clonogenic assay after 2 Gy IR; assay type: cell-based; details: increasing concentrations
[3] = system: single strand annealing (SSA); test: GFP reporter assay for single strand annealing; assay type: cell-based; details: 5 μM, 48 h
Procedure: FIG. 13B is GFP-reporter assays examining effects of OA-NO2 on different DNA DSB repair pathways described in FIG. 14A. U2OS cells containing the GFP-reporter construct DR-GFP were transfected with an I-SceI plasmid and treated with vehicle (gray), 5 μM OA (green) or 5 μM OA-NO2 (red). The number of GFP positive cells were detected by flow cytometry at 48 h. GFP-reporter measuring NHEJ: n=3, SSA: n=3; HDR: n=3; Alt-EJ: n=1.
Measurements of NHEJ, HR, Alt-EJ and SSA assays were performed as previously described. HR activity was measured by counting GFP-positive cells by flow cytometry at the MWRI flow cytometry core using a BD LSRII (BD Biosciences). RAD51 overexpressing cells were generated by stable transfection of pLVX RAD51 IRES Neo and selection with geneticin (Invitrogen).

T1 sequence (Q04206 whole entry): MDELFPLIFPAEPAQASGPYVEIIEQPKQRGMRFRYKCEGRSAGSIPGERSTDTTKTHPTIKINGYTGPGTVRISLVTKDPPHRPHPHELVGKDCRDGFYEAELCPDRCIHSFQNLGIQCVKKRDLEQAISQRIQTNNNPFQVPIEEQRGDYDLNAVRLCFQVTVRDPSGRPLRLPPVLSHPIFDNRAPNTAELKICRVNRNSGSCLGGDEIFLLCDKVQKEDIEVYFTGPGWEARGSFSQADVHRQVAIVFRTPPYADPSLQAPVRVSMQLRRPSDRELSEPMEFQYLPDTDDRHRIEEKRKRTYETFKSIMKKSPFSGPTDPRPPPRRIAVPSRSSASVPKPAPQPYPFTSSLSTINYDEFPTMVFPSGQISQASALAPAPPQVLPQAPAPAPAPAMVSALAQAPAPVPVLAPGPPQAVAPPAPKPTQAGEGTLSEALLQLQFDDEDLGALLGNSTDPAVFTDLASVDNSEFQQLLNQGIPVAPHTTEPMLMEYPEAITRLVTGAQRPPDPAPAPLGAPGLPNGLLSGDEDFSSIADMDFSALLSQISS

CCCCCCCCC(=CCCCCCCCC(=O)O)[N+](=O)[O-] [NO2-OA, 10-nitro-octadec-9-enoic acid]
NF-κB-dependent transcription of luciferase [1]: significantly inhibited
RelA Cys105 alkylation (LC-MS/MS proteomics) (RelA): alkylated
cell cycle changes (MDA-MB-231 cells): no significant changes to the cell cycle occurred
polyubiquitination of RelA ([2]; 5 μM, 5 hr): promoted polyubiquitination of RelA
RelA protein abundance ([2]; 5 μM, 24 hr): decreased the abundance of RelA
RelA mRNA levels ([2]; all three cell lines (MDA-MB-231, MDA-MB-468, MCF-10A)): not altered
RelA protein levels (RelA in MCF-10A cells): not altered
cell death in clonogenic assay (breast cancer cell): enhanced breast cancer cell death
effect on single strand annealing [3]: also inhibits single strand annealing
